According to PMC4747407 (Oncotarget, 2015):
pIC50: −log10 of the molar value. “Also recorded” adds a separate entry of the source.

How the values were obtained:
[1] = tested on: Wnt1 (int-1) mammary tumors; test: Wnt1 subcutaneous mammary tumor model; settings: E6201 40 mg/kg i.v. Q4Dx3; for tumor growth, single agent: E7449 100 mg/kg once daily, Wnt-C59 10 mg/kg once daily
Method: (§1) All studies were performed according to IACUC approved protocols. The general health of mice was monitored daily. Tumor volume was determined by caliper measurements (mm), using the formula (l x w^2)/2 = mm^3, where l and w refer to the larger and smaller perpendicular dimensions collected at each measurement. Tumor dimensions were recorded twice per week starting when tumors reached an approximate size of 100 to 150 mm^3. Body weights were recorded twice per week and relative body weight was calculated as follows: Relative body weight = (body weight on day of measurement/body weight on first day of treatment).
Tumor pieces cut to approximately 2 mm^3 in size were injected subcutaneously in female nude mice. Treatment was initiated approximately 9–10 days post-implantation of mice.

[2] = cited from earlier work
[3] = tested on: B16-F10 mouse melanoma isografts; test: B16-F10 mouse melanoma isograft model, combination with TMZ; format: in vivo; settings: E7449 100 mg/kg or TMZ 50 mg/kg, oral once daily
Method: All studies were performed according to IACUC approved protocols. The general health of mice was monitored daily.
TMZ combination in B16-F10 isograft model: female C57BL/6 mice were inoculated subcutaneously with B16-F10 cells (2 × 10^5). Following randomization by body weight, drug treatment was initiated 1 day post-inoculation. […] TMZ was administered daily on days 1 to 5 at 50 mg/kg as a single agent or in combination. […] The control group was treated with vehicle (0.5% methyl cellulose in water). E7449 or vehicle was administered first and when dosing of all animals was complete TMZ was administered to animals receiving the combination.

Wnt1 model tumors = test: Gene expression of Wnt-related genes in Wnt1 model tumors (mouse TLDA); format: in vivo; settings: 7 days of drug treatment
Method: (§2) Gene expression profiling was performed using a custom designed TaqMan® low density array (TLDA). Total RNA was isolated from cell lines using RNeasy Mini Kit (Qiagen) and from xenograft tumor FFPE tissue using RecoverAll Total Nucleic Acid Isolation (Ambion). Human and mouse, real-time qPCR TLDAs (384-well micro fluidic card) were designed with genes selected based on their involvement in Wnt signalling (see supplementary Tables 2 and 3 for lists of genes on TLDAs). cDNA was generated from total RNA using High Capacity cDNA Reverse Transcription kit (Life Technologies) or SuperScript® VILO™ Master Mix (Life Technologies). 100 ng cDNA was combined with TaqMan® Gene Expression Master Mix (Life Technologies) for the cell lines and TaqMan® Advanced FAST Master Mix (Life Technologies) for the xenograft tissue for each port (in duplicate). TLDAs were run based on recommended cycling times for each master mix. Ct values were calculated and imported into GeneData Analyst for further analysis. To calculate the ΔCts, gene expression was normalized to several housekeeping genes. Relative fold change was calculated by comparison to the DMSO or vehicle-treated controls for each sample. A student's t-test was used to calculate P-values and hierarchical clustering used Manhattan distance and complete linkage plotting of selected significant genes to generate heat maps.

DLD-1 cells = test: Western blot of Wnt/β-catenin pathway proteins in DLD-1 cells; format: cell-based, human; settings: 24 h
Method: (§3) SW480, DLD-1 (Wnt-dependent) or RKO (Wnt-independent) cells were plated in 6-well plates and incubated overnight. Cells were treated with E7449, olaparib or XAV939 and incubated for various time periods prior to processing by SDS PAGE and western blot analysis. […] Following binding of appropriate secondary antibodies labeled with IRDye® (LI-COR), image analysis was performed with Image Studio software for the LI-COR Odyssey system (version 2.1.10).

SW480 cells [4] = test: Western blot of Wnt/β-catenin pathway proteins in SW480 cells; format: cell-based, human; settings: 10 μmol/L, 24 h
Method: as §3

SW480 cells [5] = test: Gene expression profiling of Wnt-related genes (TLDA qPCR) in SW480 cells; format: cell-based, human; settings: 3 μmol/L (XAV939 also 30 μmol/L), 72 h
Method: as §2

[6] = tested on: MX-1 human breast cancer xenografts; format: in vivo; settings: E7449 100 mg/kg oral once daily; carboplatin single i.v. dose 60 mg/kg
Method: as §1
Carboplatin combination in MX-1 orthotopic xenografts: female nude mice were implanted with MX-1 cells (0.5 × 10^6) in the thoracic mammary fat pad. Treatment started on day 3 when the average tumor size was approximately 50 mm^3. Carboplatin was administered as a single intravenous dose at 60 mg/kg on day 3 or 4.

tankyrase = settings: read-out: reported IC50 values for tankyrase inhibition; various assays; cited from earlier work
wild type DT40 cells = test: cells; settings: DT40, 48 h, read-out: IC50, cell proliferation, wild type DT40 cells
TNKS1/2 = tested on: TNKS1/2; parameters: method as in Wahlberg et al 48; settings: ref Wahlberg et al 48; cited from earlier work
PARP2 = settings: read-out: reported IC50, PARP2; cited from earlier work
TNKS1 = settings: read-out: reported IC50, TNKS1; cited from earlier work
[7] = tested on: DNA repair mutant DT40 cell lines; test: Proliferation assay in panel of isogenic DNA repair mutant DT40 cell lines (XTT); format: cell-based, avian; settings: versus wild type DT40

## CCNc1cc(O)c2c(c1)/C=C/C[C@H](O)[C@H](O)C(=O)/C=C\[C@@H](C)[C@H](C)OC2=O [E6201, reference compound]
[1]; recovered post-treatment
  decreased body weight: < 10%
[1]
  tumor growth, single agent: No antitumor activity

## CS(=O)(=O)c1ccc(-c2nnc(/C=C/c3nnc(-c4ccc(C#N)cc4)o3)n2-c2ccccc2Cl)nc1 [G007-LK]
[2]
  single agent antitumor activity: inhibit tumor growth as a single agent in certain models
[2]; in vivo
  therapeutic window: very narrow therapeutic window because of intestinal toxicity

## Cn1nnc2c(C(N)=O)ncn2c1=O [TMZ, temozolomide, reference compound]
[3]
  growth of subcutaneous tumors, single agent: moderately inhibited

## Cc1cc(-c2ccc(CC(=O)Nc3ccc(-c4cccnc4)cc3)cc2)ccn1 [Wnt-C59, reference compound]
[1]
  tumor growth, single agent: significant antitumor activity; also recorded: significantly inhibited tumor growth
Wnt1 model tumors
  expression of Wnt-related genes CAR2, FZD9, LEF1, VIL1 in tumors: significant alteration

## Oc1nc(-c2ccc(C(F)(F)F)cc2)nc2c1CSCC2 [XAV939]
DLD-1 cells
  effect on levels of β-catenin: robust effect on levels of β-catenin was not observed
SW480 cells [4]
  Cyclin D1 protein levels: modest decrease
  axin2 protein level: Increased axin2
  reduction of active (non-phosphorylated) β-catenin level: ~ 90%
  reduction of total β-catenin level: ~75%
SW480 cells [5]
  expression of 6 E7449-responsive genes (NOS3, LGR5, LEF1, NKD1, CYR61, MMP7): altered expression of these 6 genes in the same direction

## N.N.O=C([O-])C1(C(=O)[O-])CCC1.[Pt+2] [carboplatin, reference compound]
[6]
  antitumor activity, single agent: modest, but statistically significant versus vehicle; also recorded: only modest antitumor activity

## NC(=O)c1cccc2cn(-c3ccc([C@@H]4CCCNC4)cc3)nc12 [niraparib]
tankyrase
  pIC50: 6.22

## O=C(c1cc(Cc2n[nH]c(=O)c3ccccc23)ccc1F)N1CCN(C(=O)C2CC2)CC1 [olaparib]
Wild type DT40 cells
  pIC50: 5.68
SW480 cells [4]
  Cyclin D1 protein levels: unaffected
  axin2 protein level: remained at basal levels
  β-catenin protein levels: remained unchanged
TNKS1/2
  binding to TNKS1/2 catalytic domain: no significant binding
PARP2
  pIC50: […]
TNKS1
  pIC50: […]
[7]
  sensitivity of DT40 cells lacking PARP expression: A similar observation
SW480 cells [5]
  expression of 6 E7449-responsive genes (NOS3, LGR5, LEF1, NKD1, CYR61, MMP7): no effect or altered expression in the opposite direction
tankyrase
  pIC50: […]

## CNCc1ccc(-c2[nH]c3cc(F)cc4c3c2CCNC4=O)cc1 [rucaparib]
TNKS1/2
  binding to TNKS1/2 catalytic domain: binding to the catalytic domain of multiple PARP family members including tankyrases

## C[C@]1(c2nc3c(C(N)=O)cccc3[nH]2)CCCN1 [veliparib]
TNKS1/2
  binding to TNKS1/2 catalytic domain: no significant binding
tankyrase
  pIC50: […]
